The text below walks through data of PMC6247689, “Determination of the volatile and polyphenol constituents and the antimicrobial, antioxidant, and tyrosinase inhibitory activities of the bioactive compounds from the by-product of Rosa rugosa Thunb. var. plena Regal tea” (BMC Complementary and Alternative Medicine, 2018).

SMILES strings stand for the structures. In brackets after ≈: the same amount, converted by molar mass. Read-outs that look alike come from different tables or passages of the source.

One assay can be described thus: ABTS radical scavenging. To be noted: 30 °C, 30 min; positive control = Trolox. On the procedure: The ABTS assay of RFCS was performed according to a modified version of a previously reported method. Briefly, the stock solutions were generated by mixing equal quantities of 7.4 mM ABTS^●+ solution and 2.6 mM potassium persulfate solution, and the mixture was incubated at room temperature for 12 h in the dark. Then, the solution was equilibrated with 1 mL of ABTS^●+ solution with 50% ethanol serving as a positive control. The absorbance of the solution at 734 nm was 1.17 ± 0.02 units. […] The mixture was mixed vigorously and incubated at 30 °C for 30 min. The absorbance was then measured at […] using the spectrophotometer. […] Inhibition%=Absorbance of blank-Absorbance of sample/Absorbance of blank×100

In the next assay the target is mushroom tyrosinase. Put plainly: Tyrosinase inhibitory activity (spectrophotometric, DOPA substrate). The assay is classed as biochemical. To be noted: pH 6.8, 37 °C, 15 min, positive control = kojic acid. The method, then: The reaction mixture was vortexed and maintained at 37 °C for 15 min, and then the absorption maximum of dopachrome (set at 479 nm) was measured using a microplate reader (Molecular Devices, Sunnyvale, California, USA). The tests were performed in triplicate, and the value of tyrosinase inhibition activity was calculated as described above.

Assay [1] deals with Fusobacterium nucleatum (ATCC 10953). Put plainly: MIC and MBC, broth microdilution. The assay is classed as cell-based. The note with it: F. nucleatum; for MIC: anaerobic, 37 °C, 48 h. The method, then:
(§1) The antimicrobial activity was measured by the method described by Xue. All standard strains were obtained from the Guangdong Microbiology Culture Center (Guangzhou, China). Listeria ivanovii (ATCC 19119) was cultured in BHI, Salmonella enteritidis enteritidis (ATCC 14028) Staphylococcus aureus (ATCC 25923) and Escherichia coli (ATCC 25922) were cultured in nutrient agar (NA) for 24 h and at 37 °C. candida albicans (ATCC 10231) was cultured in PHB at 37 °C for 24 h. Propionibacterium acnes (ATCC 6919) and Fusobacterium nucleatum (ATCC 10953) were cultured in CDC agar at 37 °C for 48 h in a YQX-II anaerobic incubator (Shanghai, China). The final cell counts in l mL of broth were approximately 10^6 colony-forming units (CFU/mL). A 10 mg/mL solution of miconazole nitrate and hydrochloride tetracycline in water was used as a positive control against fungi and bacteria, respectly.
(§2) The MIC and MBC or MFC values were determined as described previously by Xue. Briefly, 100 μL dilutions (approximately 100,000 CFU/mL) of Staphylococcus aureus, Escherichia coli, Salmonella enteritidis enteritidis, Fusobacterium nucleatum, and Candida albicans in nutrient broth and Listeria ivanovii and Propionibacterium acnes in GMA broth were inoculated into microtiter plates. Then, 100 μL aliquots of the solutions of the test compound were added after a two-fold serial dilution with nutrient broth (from 2 mg/mL to 3 μg/mL). Broths with 5% (v/v) DMSO were used as controls. The petri dishes were incubated at 37 °C for 24 h with the exception of Propionibacterium acnes and Fusobacterium nucleatum, which were incubated at 37 °C for 48 h. The MIC was recorded as the lowest concentration of sample showing no detectable growth. To determine the MBC or MFC values for no bacterial or fungus growth, 10 μL of sub-inhibitory concentrations of the test compounds were incubated on CDC or GMA agar plates for 24 or 48 h. Every determination was carried out in triplicate.
Background: In broth dilution the organism is exposed to a series of concentrations in liquid medium.

In assay [2] the test system is Escherichia coli (ATCC 25922). The assay is described as follows: MIC and MBC, broth microdilution. The note with it: Escherichia coli, ATCC25922, E. coli; for MIC: 37 °C, 24 h, read-out: MIC; for MBC: read-out: MBC. The class given is cell-based. The method, then:
as §1, §2

Assay [3] concerns Propionibacterium acnes (ATCC 6919). Put plainly: MIC and MBC, broth microdilution. The note with it: P. acnes; for MIC: anaerobic, 37 °C, 48 h; for MBC: read-out: MBC. The class given is cell-based. The method, then: as §1, §2
Assay [4] has as its system Salmonella enteritidis enteritidis (ATCC 14028). Put plainly: MIC and MBC, broth microdilution. The note with it: S. enteritidis enteritidis; for MIC: 37 °C, 24 h; for MBC: read-out: MBC. The assay is classed as cell-based. The method, then: as §1, §2
In assay [5] the test system is Staphylococcus aureus (ATCC 25923). Put plainly: MIC and MBC, broth microdilution. The assay is classed as cell-based. The note with it: Staphylococcus aureus, ATCC25923, S. aureus; for MIC: 37 °C, 24 h, read-out: MIC; for MBC: read-out: MBC. On the procedure:
as §1, §2

Assay [6] has as its system Listeria ivanovii (ATCC 19119). The assay is described as follows: MIC and MBC, broth microdilution. The assay is classed as cell-based. To be noted: L. ivanovii; for MIC: 37 °C, 24 h. The method, then:
as §1, §2

A short description of assay [7]: DPPH radical scavenging activity. To be noted: 30 min in the dark, 517 nm; positive control = ascorbic acid. The method, then: The antioxidant activity of RFCS and the standards were evaluated by DPPH radical scavenging activity using a slightly modified version of a previously reported method. […] Aliquots (100 μL) of the supernatants were transferred into a 96-well microplate, and the absorbance of each was recorded at 517 nm using a Spectramax Plus384 UV-Vis spectrophotometer (Molecular Devices, Sunnyvale, California, USA). […] The IC50 values, which represent the concentrations of rose samples and standard substance at which 50% of the DPPH radical was inhibited, were determined. The tests were performed in triplicate, and the percentage of DPPH scavenging was calculated using the following equation. Inhibition%=H0-H/H0×100 H:Absorbance of RFCS and the standards;H0:Absorbance of the blank
On the technique in general: DPPH is a stable violet radical that fades when it is reduced.

Assay [8] deals with candida albicans (ATCC 10231). Put plainly: MIC and MFC, broth microdilution. The assay is classed as cell-based. The note with it: Candida albicans, ATCC10231, C. albicans; for MIC: 37 °C, 24 h, read-out: MIC; for MFC: read-out: MFC. On the procedure: as §1, §2
The mark [9] stands for this setting: Fusobacterium nucleatum, ATCC10953, read-out: MIC.
Setting [10] is: Fusobacterium nucleatum, ATCC10953, read-out: MBC.
[11] abbreviates: Cutibacterium acnes, ATCC6919, read-out: MIC.
The mark [12] stands for this setting: Salmonella enterica, read-out: MIC.
Where [13] appears, read: Listeria ivanovii, ATCC19119, read-out: MIC.
Setting [14] is: Listeria ivanovii, ATCC19119, read-out: MBC.

Take `CC(C)=CCCC(C)CCO` (stereo not drawn) [Citronellol]: the “ABTS radical scavenging activity IC50” value in the assay “ABTS radical scavenging” is > 10,000 a μg/mL. The “Tyrosinase inhibition IC50” value at mushroom tyrosinase is recorded as 825 ± 31 a μg/mL. Also, the MIC in [1] (setting [9]) was 250 µg/mL (≈ 1600 µM); in assay [2], 250 µg/mL (≈ 1600 µM); in assay [3] (setting [11]), 125 µg/mL (≈ 800 µM); in assay [4] (setting [12]), 250 µg/mL (≈ 1600 µM); in [5], 125 µg/mL (≈ 800 µM); in assay [6] (setting [13]), 250 µg/mL (≈ 1600 µM). Further, in assay [8], the MIC is 250 µg/mL (≈ 1600 µM). Moreover, the MBC in assay [1] (setting [10]) amounted to 1000 µg/mL (≈ 6400 µM); in assay [2], 500 µg/mL (≈ 3200 µM); in assay [3] (Cutibacterium acnes, ATCC6919) it was 500 µg/mL (≈ 3200 µM); in assay [4] (Salmonella enterica) it was 1000 µg/mL (≈ 6400 µM); in assay [5], 500 µg/mL (≈ 3200 µM); in [6] (setting [14]), 500 µg/mL (≈ 3200 µM). Besides, the “DPPH radical scavenging activity IC50” value in assay [7] is recorded as above 10000a μg/mL. For the same compound, in assay [8], the MFC came out at 500 µg/mL (≈ 3200 µM).

For the compound `CN(C)[C@@H]1C(=O)C(C(N)=O)=C(O)[C@@]2(O)C(=O)C3=C(O)c4c(O)cccc4[C@@](C)(O)[C@H]3C[C@@H]12.Cl` [Hydrochloride tetracycline], the MBC in [1] was 2 µg/mL; in [6], below 0.1 µg/mL. Besides, the MIC is 2 µg/mL in assay [1], 8 µg/mL in [3], 8 µg/mL in assay [4] and below 0.1 µg/mL in assay [6].

`O=c1c(O[C@@H]2O[C@H](CO)[C@H](O)[C@H](O)[C@H]2O)c(-c2ccc(O)c(O)c2)oc2cc(O)cc(O)c12` [Hyperoside]: the “ABTS radical scavenging activity IC50” value in “ABTS radical scavenging” turned out to be 0.526 ± 0.014 c μg/mL. The Tyrosinase inhibition IC50 was 0.762 ± 0.018 µg/mL at mushroom tyrosinase and below 1 µg/mL on mushroom tyrosinase (listed as hyperoside). For the same compound, the MIC in [1] (setting [9]), in assay [2], in assay [3] (setting [11]), in assay [4] (setting [12]), in assay [5] and in [6] (setting [13]) was 250 µg/mL (≈ 538 µM) in each case. Also, the MIC in assay [8] worked out at 250 µg/mL (≈ 538 µM). Also, the MBC in assay [1] (setting [10]) worked out at 500 µg/mL (≈ 1080 µM); in assay [2], 1000 µg/mL (≈ 2150 µM); in [3] (Cutibacterium acnes, ATCC6919), 1000 µg/mL (≈ 2150 µM); in assay [4] (Salmonella enterica) it was 500 µg/mL (≈ 1080 µM); in assay [5] it was 1000 µg/mL (≈ 2150 µM); in [6] (setting [14]), 500 µg/mL (≈ 1080 µM). For the same compound, the “DPPH radical scavenging activity IC50” value in [7] is recorded as 0.695 ± 0.021 c μg/mL. Moreover, the MFC in [8] worked out at 1000 µg/mL (≈ 2150 µM).

As for `C=CC(C)(O)CCC=C(C)C` (stereo not drawn) [Linalool], the “ABTS radical scavenging activity IC50” value in the assay “ABTS radical scavenging” is reported as > 10,000 a μg/mL. Also, the “Tyrosinase inhibition IC50” value on mushroom tyrosinase was 730 ± 44 a μg/mL. For the same compound, the MIC was 250 µg/mL (≈ 1620 µM) in assay [1] (setting [9]); 250 µg/mL (≈ 1620 µM) in [2]; 250 µg/mL (≈ 1620 µM) in assay [3] (setting [11]); 500 µg/mL (≈ 3240 µM) in assay [4] (setting [12]); 250 µg/mL (≈ 1620 µM) in assay [5]; 500 µg/mL (≈ 3240 µM) in assay [6] (setting [13]). Further, the MIC in assay [8] amounted to 250 µg/mL (≈ 1620 µM). In addition, the MBC is 1000 µg/mL (≈ 6480 µM) in assay [1] (setting [10]); 1000 µg/mL (≈ 6480 µM) in [2]; 1000 µg/mL (≈ 6480 µM) in assay [3] (Cutibacterium acnes, ATCC6919); above 1000 µg/mL in assay [4] (Salmonella enterica); 1000 µg/mL (≈ 6480 µM) in assay [5]; above 1000 µg/mL in assay [6] (setting [14]). Also, the “DPPH radical scavenging activity IC50” value in assay [7] is > 10,000 a μg/mL. In assay [8], the MFC is 1000 µg/mL (≈ 6480 µM).

Take `O=c1cc(-c2ccc(O)c(O)c2)oc2cc(O)cc(O)c12` [Luteolin]: in “ABTS radical scavenging”, the “ABTS radical scavenging activity IC50” value was 0.436 ± 0.026 c μg/mL. The compound further gave a Tyrosinase inhibition IC50 on mushroom tyrosinase of 0.613 ± 0.016 µg/mL. Further, the MIC in assay [1] (setting [9]) came to 125 µg/mL (≈ 437 µM); in assay [5], 500 µg/mL (≈ 1750 µM); in assay [6] (setting [13]) it was 500 µg/mL (≈ 1750 µM). Further, the MBC in [1] (setting [10]) was 500 µg/mL (≈ 1750 µM); in assay [2], 1000 µg/mL (≈ 3490 µM); in [3] (Cutibacterium acnes, ATCC6919), 500 µg/mL (≈ 1750 µM); in [5], above 1000 µg/mL; in assay [6] (setting [14]), 1000 µg/mL (≈ 3490 µM). In addition, in assay [7], the “DPPH radical scavenging activity IC50” value amounted to 0.507 ± 0.015 c μg/mL. The MFC in assay [8] was found to be 500 µg/mL (≈ 1750 µM).

Regarding `Clc1ccc(COC(Cn2ccnc2)c2ccc(Cl)cc2Cl)c(Cl)c1` (stereo not drawn) [Miconazole Nitrate], in assay [2], the MBC was determined as 16 µg/mL. In addition, the minimal inhibitory concentration (MIC) in [8] amounted to 8 µg/mL.

Broadly, the MIC is the lowest concentration found to suppress growth. As usually defined, the MBC is the smallest concentration meeting the test's criterion for killing. What is called MFC is the lowest tested concentration that kills the fungus rather than only halting it.
